# Assay results from patent publication US20250152585A1, “PHARMACEUTICAL COMPOUND” (Duke Street Bio Limited, priority 2022, published 2025).
# Where two headings read alike, the source gives them in different places.
# Columns and labels:
# [1] = target: T1, N-terminally FLAG-tagged PARP2 (amino acids 1-583) (Homo sapiens, UniProt Q9UGN5); assay: PARP2 probe displacement HTRF assay; format: binding; settings: binned Kd
# T1 construct: N-terminally FLAG-tagged PARP2 (amino acids 1-583)
# Method: Data analysis was performed identical as for PARP1.
# PARP1 = target: T2, PARP1 (Homo sapiens, UniProt P09874); assay: NanoBRET cellular target occupancy assay, PARP1; format: cell-based; settings: for Kd: HEK293 cells transiently transfected with PARP1-NanoLuc fusion, tracer 11 nM, 2 hours at 37° C., Kd by Cheng-Prussoff; for Selectivity: NanoBRET, PARP1 over PARP2, Kd (PARP2)/Kd (PARP1)
# T2 construct: host or cells: HEK293
# PARP2 = target: T3, PARP2 (Homo sapiens, UniProt Q9UGN5); assay: NanoBRET cellular target occupancy assay, PARP2; format: cell-based; settings: HEK293 cells transiently transfected with PARP2-NanoLuc fusion; tracer 2 nM; 2 hours at 37° C.; Kd by Cheng-Prussoff
# T3 construct: host or cells: HEK293
# Excerpt: NanoBRET Cellular Target Occupancy Assay
# [2] = target: T4, full length N-terminally FLAG-tagged PARP1 (Homo sapiens, UniProt P09874); assay: PARP1 probe displacement HTRF assay; settings: for Selectivity: PARP1 over PARP2, ratio Kd (PARP2)/Kd (PARP1); for Kd: binned Kd
# [3] = target: T4, full length N-terminally FLAG-tagged PARP1; assay: PARP1 biochemical DELFIA assay (auto-PARylation); design: recombinant full length human N-terminally FLAG-tagged PARP1
# [4] = read-out: PARP1 HTRF, PARP1 probe displacement HTRF
# [5] = binned IC50, PARP1 biochemical DELFIA assay
# [6] = read-out: PARP1 HTRF, probe displacement HTRF
# [7] = binned IC50, biochemical auto-PARylation assay
# [8] = PARP1 HTRF, probe displacement HTRF
# T4 sequence (P09874 whole entry): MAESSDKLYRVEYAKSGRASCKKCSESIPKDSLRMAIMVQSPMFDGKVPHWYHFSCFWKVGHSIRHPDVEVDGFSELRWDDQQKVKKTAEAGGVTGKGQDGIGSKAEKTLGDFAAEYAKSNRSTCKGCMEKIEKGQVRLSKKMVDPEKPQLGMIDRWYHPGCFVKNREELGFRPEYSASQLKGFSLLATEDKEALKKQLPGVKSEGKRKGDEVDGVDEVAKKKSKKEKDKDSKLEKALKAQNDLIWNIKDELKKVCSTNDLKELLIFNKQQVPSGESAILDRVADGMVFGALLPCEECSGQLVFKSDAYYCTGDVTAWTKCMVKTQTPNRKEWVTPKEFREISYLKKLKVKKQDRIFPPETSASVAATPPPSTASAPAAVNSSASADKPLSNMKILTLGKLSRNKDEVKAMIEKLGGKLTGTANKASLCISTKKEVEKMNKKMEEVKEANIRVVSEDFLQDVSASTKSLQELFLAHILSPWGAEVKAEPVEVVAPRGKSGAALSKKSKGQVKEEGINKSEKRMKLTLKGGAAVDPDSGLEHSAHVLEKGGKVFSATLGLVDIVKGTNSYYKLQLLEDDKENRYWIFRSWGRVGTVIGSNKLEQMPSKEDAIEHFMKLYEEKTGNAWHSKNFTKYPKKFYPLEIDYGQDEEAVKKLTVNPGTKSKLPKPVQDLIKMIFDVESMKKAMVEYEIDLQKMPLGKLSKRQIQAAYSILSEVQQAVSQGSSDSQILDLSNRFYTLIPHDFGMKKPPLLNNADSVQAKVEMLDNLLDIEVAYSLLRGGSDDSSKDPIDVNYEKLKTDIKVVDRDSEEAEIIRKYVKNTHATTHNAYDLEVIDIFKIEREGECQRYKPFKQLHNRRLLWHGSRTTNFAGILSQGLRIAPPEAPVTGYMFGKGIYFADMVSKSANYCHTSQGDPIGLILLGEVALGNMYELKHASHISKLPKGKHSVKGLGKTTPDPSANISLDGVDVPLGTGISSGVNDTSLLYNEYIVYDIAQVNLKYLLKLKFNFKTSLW
# T2 sequence (P09874 whole entry, the tested form may be a part): as the sequence (P09874 whole entry) above
# T1 sequence (Q9UGN5 whole entry, the tested form may be a part): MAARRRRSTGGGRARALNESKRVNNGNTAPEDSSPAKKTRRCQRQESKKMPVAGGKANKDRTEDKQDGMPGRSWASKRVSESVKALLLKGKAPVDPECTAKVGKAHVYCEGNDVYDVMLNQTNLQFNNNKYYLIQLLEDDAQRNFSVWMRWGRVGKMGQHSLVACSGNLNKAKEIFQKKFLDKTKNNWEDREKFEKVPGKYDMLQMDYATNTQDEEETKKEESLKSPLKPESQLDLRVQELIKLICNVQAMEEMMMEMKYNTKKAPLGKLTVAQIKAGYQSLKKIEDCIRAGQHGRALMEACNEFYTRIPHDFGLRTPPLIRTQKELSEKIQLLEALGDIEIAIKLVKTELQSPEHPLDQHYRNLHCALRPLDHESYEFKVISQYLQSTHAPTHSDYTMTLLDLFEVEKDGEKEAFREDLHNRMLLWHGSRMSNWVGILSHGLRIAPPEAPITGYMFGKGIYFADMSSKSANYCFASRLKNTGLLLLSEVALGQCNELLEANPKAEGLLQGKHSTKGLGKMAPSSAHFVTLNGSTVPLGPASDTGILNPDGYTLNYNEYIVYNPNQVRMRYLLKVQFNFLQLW
# T3 sequence (Q9UGN5 whole entry, the tested form may be a part): as above
Kd ([1]; PARP2 probe displacement HTRF),Kd (PARP1),Kd (PARP2),"Kd [2, 4]","IC50 [3, 5]",Kd ([1]; probe displacement HTRF),"Kd [2, 6]","IC50 [3, 7]","Kd [2, 8]",SMILES,Selectivity (PARP1),Selectivity ([2]; probe displacement HTRF)
100 to 1000 nM,< 10 nM,1000 to 10000 nM,< 10 nM,< 10 nM,–,–,–,–,"CNC(=O)c1ccc(N2CCC(N3CCC(c4nc5ccc(Cl)cc5c(=O)[nH]4)C3)CC2)cn1 (single isomer, unassigned) [Compound 68a]",+++ (+++ indicate a value of at least 100),+++ (+++ indicate a value of at least 100)
–,< 10 nM,> 10000 nM,–,–,1000 to 10000 nM,< 10 nM,< 10 nM,–,"CNC(=O)c1ccc(N2CCC(N3CCC(c4cc5ncc(Cl)cc5c(=O)[nH]4)C3)CC2)c(F)n1 (single isomer, unassigned) [Compound 344b]",+++ (+++ indicate a value of at least 100),+++ (+++ indicate a value of at least 100)
–,< 10 nM,> 10000 nM,–,–,1000 to 10000 nM,–,< 10 nM,< 10 nM,CCc1cnc(C23CC(C2)N(C2CCN(c4ccc(C(=O)NC)nc4F)CC2)C3)[nH]c1=O [Compound 300],+++ (+++ indicate a value of at least 100),+++ (+++ indicate a value of at least 100)
–,100 to 1000 nM,1000 to 10000 nM,–,–,100 to 1000 nM,–,< 10 nM,< 10 nM,CNC(=O)c1ccc(N2CCC(N3CC4(c5nc6c(c(=O)[nH]5)CCCN6)CC3C4)CC2)cn1 [Compound 312],++ (++ indicates a value of 50 to less than 100),+++ (+++ indicate a value of at least 100)
100 to 1000 nM,< 10 nM,100 to 1000 nM,< 10 nM,< 10 nM,–,–,–,–,"CNC(=O)c1ccc(N2CCC(N3CCC(c4nc5ccc(F)cc5c(=O)[nH]4)C3)CC2)cn1 (single isomer, unassigned) [Compound 64b]",+++ (+++ indicate a value of at least 100),+++ (+++ indicate a value of at least 100)
100 to 1000 nM,< 10 nM,1000 to 10000 nM,< 10 nM,< 10 nM,–,–,–,–,"CNC(=O)c1ccc(N2CCC(N3CCC(c4nc5ccccc5c(=O)[nH]4)C3)CC2)cn1 (single isomer, unassigned) [Compound 10b, N-methyl-5-(4-(3-(4-oxo-3,4-dihydroquinazolin-2-yl)pyrrolidin-1-yl)piperidin-1-yl)picolinamide]",+++ (+++ indicate a value of at least 100),+++ (+++ indicate a value of at least 100)
–,< 10 nM,10 to 100 nM,–,–,10 to 100 nM,< 10 nM,< 10 nM,–,"O=C(NC1CC1)c1ccc(N2CCC(N3CCC(c4cc5cccc(F)c5c(=O)[nH]4)C3)CC2)cn1 (single isomer, unassigned) [Compound 339a]",+ (+ indicates a value of 10 to less than 50),+ (+ indicates a value of 10 to less than 50)
100 to 1000 nM,< 10 nM,100 to 1000 nM,< 10 nM,< 10 nM,–,–,–,–,"CNC(=O)c1ccc(N2CCC(N3CCC(c4cc5ccc(F)cc5c(=O)[nH]4)C3)CC2)nn1 (single isomer, unassigned) [Compound 197a]",+++ (+++ indicate a value of at least 100),+++ (+++ indicate a value of at least 100)
–,< 10 nM,100 to 1000 nM,–,–,100 to 1000 nM,< 10 nM,< 10 nM,–,"N#Cc1ccc(N2CCC(N3CCC(c4cc5cccc(F)c5c(=O)[nH]4)C3)CC2)cc1 (single isomer, unassigned) [Compound 314b]",+++ (+++ indicate a value of at least 100),+++ (+++ indicate a value of at least 100)
–,< 10 nM,1000 to 10000 nM,–,–,100 to 1000 nM,< 10 nM,< 10 nM,–,CNC(=O)c1ccc(N2CCC(N3CCC(c4cc5ncc(Cl)cc5c(=O)[nH]4)C3)CC2)cn1 (racemic) [Compound 329rac],+++ (+++ indicate a value of at least 100),+++ (+++ indicate a value of at least 100)
–,10 to 100 nM,> 10000 nM,–,–,> 10000 nM,–,< 10 nM,< 10 nM,CNC(=O)c1ccc(N2CCC(N3CC4(c5nc6c(c(=O)[nH]5)CCC6)CC3C4)CC2)cn1 [Compound 295],++ (++ indicates a value of 50 to less than 100),+++ (+++ indicate a value of at least 100)
100 to 1000 nM,< 10 nM,1000 to 10000 nM,< 10 nM,< 10 nM,–,–,–,–,"CCc1ccc(C2CCN(C3CCN(c4ccc(C(=O)NC)nc4)CC3)C2)[nH]c1=O (single isomer, unassigned) [Compound 72b]",+++ (+++ indicate a value of at least 100),+++ (+++ indicate a value of at least 100)
–,10 to 100 nM,> 10000 nM,–,–,> 10000 nM,–,< 10 nM,< 10 nM,"CCc1cnc(C23CC(C2)N(C2CCN(c4ccc(C(=O)NC)nc4)CC2)C3)[nH]c1=O [Compound 299, 5-(4-(4-(5-ethyl-6-oxo-1,6-dihydropyrimidin-2-yl)-2-azabicyclo[2.1.1]hexan-2-yl)piperidin-1-yl)-N-methylpicolinamide]",+++ (+++ indicate a value of at least 100),+++ (+++ indicate a value of at least 100)
–,< 10 nM,100 to 1000 nM,–,–,100 to 1000 nM,< 10 nM,< 10 nM,–,CNC(=O)c1ccc(N2CCC(N3CCC(c4cc5ncc(F)cc5c(=O)[nH]4)C3)CC2)cn1 (racemic) [Compound 315rac],+++ (+++ indicate a value of at least 100),+++ (+++ indicate a value of at least 100)
10 to 100 nM,< 10 nM,100 to 1000 nM,< 10 nM,< 10 nM,–,–,–,–,"CNC(=O)c1ccc(N2CCC(N3CCC(c4cc5c(F)ccc(F)c5c(=O)[nH]4)C3)CC2)cn1 (single isomer, unassigned) [Compound 180b]",+++ (+++ indicate a value of at least 100),++ (++ indicates a value of 50 to less than 100)
–,< 10 nM,100 to 1000 nM,–,–,100 to 1000 nM,< 10 nM,< 10 nM,–,"CCc1ccc(C2CCN(C3CCN(c4ccc(C(=O)NC5CC5)nc4F)CC3)C2)[nH]c1=O (single isomer, unassigned) [Compound 353a]",+++ (+++ indicate a value of at least 100),+++ (+++ indicate a value of at least 100)
–,–,100 to 1000 nM,–,–,–,< 10 nM,< 10 nM,–,"CNC(=O)c1ccc(N2CCC(N3CCC(c4cc5c(c(=O)[nH]4)CCCC5)C3)CC2)c(F)n1 (single isomer, unassigned) [Compound 337b, 6-fluoro-N-methyl-5-(4-(3-(1-oxo-1,2,5,6,7,8-hexahydroisoquinolin-3-yl)pyrrolidin-1-yl)piperidin-1-yl)picolinamide]",–,+++ (+++ indicate a value of at least 100)
–,–,1000 to 10000 nM,–,–,100 to 1000 nM,–,–,–,"CNC(=O)c1ccc(N2CCC(N3CCC(c4cc5c(F)cncc5c(=O)[nH]4)C3)CC2)c(F)n1 (single isomer, unassigned) [Compound 343a, 6-fluoro-5-(4-(3-(5-fluoro-1-oxo-1,2-dihydro-2,7-naphthyridin-3-yl)pyrrolidin-1-yl)piperidin-1-yl)-N-methylpicolinamide]",–,–
1000 to 10000 nM,–,–,100 to 1000 nM,10 to 100 nM,–,–,–,–,"CNC(=O)c1ccc(N2CCC(N3CCCC(c4nc5ccccc5c(=O)[nH]4)C3)CC2)c(C)n1 (single isomer, unassigned) [Compound 131a]",–,+ (+ indicates a value of 10 to less than 50)
–,–,–,–,–,100 to 1000 nM,< 10 nM,< 10 nM,–,"CNC(=O)c1ccc(N2CCC(N3CCC(c4cc5ccc(F)cc5c(=O)[nH]4)C3)CC2)c(Cl)n1 (single isomer, unassigned) [Compound 223a]",–,+++ (+++ indicate a value of at least 100)
–,–,–,–,–,100 to 1000 nM,10 to 100 nM,10 to 100 nM,–,"CNC(=O)c1ccc(N2CCC(N3CCC(c4nc5[nH]nc(C(F)(F)F)c5c(=O)[nH]4)C3)CC2)c(F)n1 (single isomer, unassigned) [Compound 267a]",–,+ (+ indicates a value of 10 to less than 50)
–,–,–,–,–,> 10000 nM,10 to 100 nM,10 to 100 nM,–,"CNC(=O)c1ccc(N2CCC(N3CCC(F)(c4nc5ccccc5c(=O)[nH]4)C3)CC2)cn1 (single isomer, unassigned) [Compound 328b]",–,+++ (+++ indicate a value of at least 100)
1000 to 10000 nM,–,–,100 to 1000 nM,10 to 100 nM,–,–,–,–,"NC(=O)c1ccc(N2CCC(N3CCCC(c4nc5ccccc5c(=O)[nH]4)C3)CC2)cn1 (single isomer, unassigned) [Compound 109b]",–,+ (+ indicates a value of 10 to less than 50)
